Reference: patent publication US8591902B2, “Antibody binding to lysophosphatidylglucoside, and composition comprising the same” (Riken, priority 2010, dated 2013)

Key:
[1] = test system: growth cone of an NT-3-dependent neuron (TrkC neuron); assay: In vitro growth cone turning assay, NT-3-supplemented medium; format: cell-based, chicken; conditions: lysophospholipid 10 μM in pipette, 45 minutes
Excerpt: The method described in T. Tojima et al., Nat Neurosci 10, 58-66 (January, 2007) was somewhat modified and employed to perform a primary culture of isolated DRG sensory nerves. Specifically, a chicken embryo at HH St. 29 was separated from the eggshell and decapitated. The body was transferred to ice-cooled PBS. Organs were removed from the obtained body with forceps, and the spine was exposed by ventral laminectomy. DRGs were isolated from the thoracic or lumbosacral spinal cord, broken into pieces fine watchmaker's forceps, and transferred into an L15 medium on ice. The DRG obtained by the dissection was treated with trypsin at 37° C. for 20 minutes, followed by centrifugation at 100 g for 1 minute. A minimum amount of an L15 medium was added to the pellets thus obtained, and the cells were manually suspended (repeated manual trituration). The cell suspension was again centrifuged at 100 g for 1 minute, and the supernatant was removed. Subsequently, the pellets were resuspended in a Leibovitz's L15 medium supplemented with N-2 (manufactured by Invitrogen Corp.), 750 μg/ml of BSA (manufactured by GIBCO), and 25 ng/ml of NGF or 50 ng/ml of NT-3 (manufactured by Sigma-Aldrich Corporation). The cells were seeded on glass dishes precoated with mouse-derived laminin (manufactured by Invitrogen Corp.) at […] such that the cell count would be 10,000 per dish. […]

[2] = test system: growth cone of an NGF-dependent neuron (TrkA neuron); assay: In vitro growth cone turning assay, NGF-supplemented medium; format: cell-based, chicken; conditions: for change in axon extension direction in response to concentration gradient: NGF-supplemented medium, TrkA neuron, lysophospholipid 10 μM in pipette, 45 minutes
Excerpt: The method described in T. Tojima et al., Nat Neurosci 10, 58-66 (January, 2007) was somewhat modified and employed to perform a primary culture of isolated DRG sensory nerves. Specifically, a chicken embryo at HH St. 29 was separated from the eggshell and decapitated. The body was transferred to ice-cooled PBS. Organs were removed from the obtained body with forceps, and the spine was exposed by ventral laminectomy. DRGs were isolated from the thoracic or lumbosacral spinal cord, broken into pieces fine watchmaker's forceps, and transferred into an L15 medium on ice. The DRG obtained by the dissection was treated with trypsin at 37° C. for 20 minutes, followed by centrifugation at 100 g for 1 minute. A minimum amount of an L15 medium was added to the pellets thus obtained, and the cells were manually suspended (repeated manual trituration). The cell suspension was again centrifuged at 100 g for 1 minute, and the supernatant was removed. Subsequently, the pellets were resuspended in a Leibovitz's L15 medium supplemented with N-2 (manufactured by Invitrogen Corp.), 750 μg/ml of BSA (manufactured by GIBCO), and 25 ng/ml of NGF or 50 ng/ml of NT-3 (manufactured by Sigma-Aldrich Corporation). The cells were seeded on glass dishes precoated with mouse-derived laminin (manufactured by Invitrogen Corp.) at […] such that the cell count would be 10,000 per dish. The dishes were placed in a culturing environment of 5% CO2 at 37° C. for approximately 2 hours before used in a growth cone turning assay.
The in vitro growth cone turning assay was conducted according to the methods described in M. Lohof, M. Quillan, Y. Dan, M. M. Poo, J Neurosci 12, 1253-61 (April, 1992), J. Q. Zheng, M. M. Poo, J. A. Connor, Perspect Dev Neurobiol 4, 205-13 (1996), and Y. Xiang et al., Nat Neurosci 5, 843-8 (September, 2002), which were somewhat modified. Specifically, lysophosphatidylcholine (manufactured by Sigma-Aldrich Corporation) or Lyso-PtdGlc prepared by a method described later was diluted with a vehicle (1% (v/v) methanol/PBS) such that the concentration would be 10 μM. […]

Molecule	change in axon extension direction in response to concentration gradient [1]	change in axon extension direction in response to concentration gradient [2]	chemorepellent effect on growth cone turning ([2]; in the presence of 50 μg/ml anti-Lyso-PtdGlc antibody)
CCCCCCCCCCCCCCCCCC(=O)OCC(O)COP(=O)(O)O[C@@H]1OC(CO)[C@@H](O)C(O)C1O (some centres unmarked) [Lyso-PtdGlc, lysophosphatidylglucoside]	no significant change	changed its extension direction	–
Lysophosphatidic acid [LPA]	–	–	strong chemorepellent effect
Lysophosphatidylcholine [LPC]	no significant influence	no significant influence	–
